Reference: patent US10407712B2, “Methods, compositions and kits for high throughput kinase activity screening using mass spectrometry and stable isotopes” (President and Fellows of Harvard College, priority 2008, dated 2019)

How the values were obtained:
HEK293 cell lysates = assay: KAYAK in vitro kinase assay, individual reactions, lysates of starved, insulin- or EGF-stimulated HEK293 cells; assay type: biochemical, human
Method: For stimulation of HEK293 cells or HeLa lines, cells were treated with insulin (100 nM; 10-30 min) EGF (50 ng/ml; 10 min) or phorbol 12-myristate 13-acetate (PMA; 50 or 100 ng/ml; 10 -30 min) at 37° C. for the indicated times after overnight serum-starvation.
For cell lysis, the media were removed, and cells were washed with ice-cold phosphate-buffered saline (PBS) and lysed with ice-cold lysis buffer (10 mM K2HPO4 pH 7.5, 1 mM EDTA, 10 mM MgCl2, 50 mM β-glycerophosphate, 5 mM EGTA, 0.5% Nonidet P-40, 0.1% Brij 35, 0.1% deoxycholic acid, 1mM sodium orthovanadate, 1mM phenylmethyl-sulfonyl fluoride, 5 μg/ml leupeptin and 5 μg/ml pepstatin A). Lysates were centrifuged at 10,000 rpm for 10 min to remove cell debris, and clear supernatant was used for immunoblotting and in vitro kinase assays. Protein concentration was determined by Bradford assay (Biorad, Hercules, Calif.).
Peptides were synthesized, purified and quantified as described in Yu et al. 2009 Proc Natl Acad Sci USA 106: 11606-11611, hereby incorporated by reference herein in its entirety. Each substrate peptide (250 pmol) was mixed to a final concentration of 5 μM in the 50 μL reaction mixture. Alternatively, reactions were performed using 6 μg cell lysate aliquotes mixed to a final volume of 20 μl. Cell lysate or other kinase source was added to the substrate mixture in 25 mM Tris-Cl, pH 7.5, containing 5 mM ATP, 7.5 mM MgCl2, 0.2 mM EGTA, 7.5 mM β-glycerophosphate, 0.1 mM Na3VO4, and 0.1 mM DTT. The reaction was incubated at 25° C. for 60 min and then terminated by the addition of 100 μl of 1% trifluoroacetic acid (TFA) containing a known amount of an internal standard (typically 20 pmol). Alternatively, the reaction was incubated at 20° C. for 45 min before termination with TFA.
Forty-five individual in vitro kinase reaction mixtures were combined and desalted by using Sep-Pak C18 cartridge (Waters, Milford, Mass.). Phosphopeptides were enriched by immobilized metal ion chromatography (IMAC) with 20 μl of beads (Phos-Select iron affinity gel; Sigma, St. Louis, Mo.) and subsequently desalted by using Empore C18 solid phase extraction disks (3M, St. Paul, Minn.) as described previously.
Quantitation of the target peptide-internal standard ratios was performed by first constructing the extracted ion chromatogram for the most abundant charge state for each peptide using a ±10 ppm window. Chromatograms were integrated using Qual/Quan browser (Xcalibur 2.0.5, Thermo Fisher, San Jose, Calif.). Since the phosphorylated peptides generated from the in vitro kinase reactions were chemically identical to the internal standards, they were assumed to have the same ionization efficiency. Therefore, the amount of each phosphorylated peptide was calculated by direct ratio to the internal standard level.
To test substrate suitability in a multiplexed assay, the phosphorylation activities were measured using […] of each substrate peptide, 6 μg lysate, and 5 mM ATP in a plate format. Reactions proceeded for 60 minutes followed by acidification and the addition of isotope-labeled reference peptides. After pooling 45 samples, phosphopeptide enrichment was followed by liquid-chromatography (LC) separation and on-line peptide detection by high-resolution mass spectrometry.
The ability of the peptides to report specific changes in kinase activation after pathway stimulation was examined herein. Lysates from HEK293 cells were collected after insulin or EGF treatment and were compared to their activities in the serum-starved state using the KAYAK approach. Western blot analysis of lysates from cells in which the PI3K and MAPK pathways were activated, as indicated by elevated phospho-Akt and phospho-ERK1/2 levels, respectively, is shown in FIG. 1D. […]

activated, purified Akt = target: T1, activated, purified Akt (Homo sapiens, UniProt P31749); assay: In vitro peptide phosphorylation by purified Akt; assay type: biochemical; conditions: 100 μM peptide, individually reacted
T1 construct: Purified human active kinases of Akt1 (full length); purchased Cell Signaling Technology (Danvers, Mass.)
Text: Reaction mixture was supplemented with 0.1% BSA. Other conditions were the same as in FIG. 10A.
Purified human active kinases of Akt1 (full length), extracellular signal-regulated kinase 1 (ERK1, 1-379), mitogen-activated protein kinase kinase 1 (MEK1, 1-393), 90 kDa ribosomal S6 kinases 1 (RSK1, 1-735), cAMP-dependent protein kinase (PKA) catalytic subunit-α (PKA Cα, 1-351), protein kinase Cα (PKCα, full length), epidermal growth factor (EGF) receptor (EGFR, 672-1210), platelet-derived growth factor (PDGF) receptor α (PDGFRα, 550-1090), vascular endothelial growth factor (VEGF) receptor 1 (VEGFR1 784-1338), Src (full length), casein kinase 2 (CK2, full length), Aurora A (1-403), AMP-activated protein kinase α1β1γ1 (AMPK α1β1γ1, full length), glycogen synthase kinase-3α (GSK-3α, 1-483) and MAP/microtubule affinity-regulating kinase 1 (MARK 1, full length) were obtained from Cell Signaling Technology (Danvers, Mass.). Cdc2/cyclin B1 (full length) and insulin-like growth factor (IGF)-I receptor (IGFIR, 959-1367) were obtained from Upstate (Temecula, Calif.).
Peptides were synthesized, purified and quantified as described in Yu et al. 2009 Proc Natl Acad Sci USA 106: 11606-11611, hereby incorporated by reference herein in its entirety. […] Alternatively, reactions were performed using 6 μg cell lysate aliquotes mixed to a final volume of 20 μl. […]

T1 sequence (P31749 whole entry): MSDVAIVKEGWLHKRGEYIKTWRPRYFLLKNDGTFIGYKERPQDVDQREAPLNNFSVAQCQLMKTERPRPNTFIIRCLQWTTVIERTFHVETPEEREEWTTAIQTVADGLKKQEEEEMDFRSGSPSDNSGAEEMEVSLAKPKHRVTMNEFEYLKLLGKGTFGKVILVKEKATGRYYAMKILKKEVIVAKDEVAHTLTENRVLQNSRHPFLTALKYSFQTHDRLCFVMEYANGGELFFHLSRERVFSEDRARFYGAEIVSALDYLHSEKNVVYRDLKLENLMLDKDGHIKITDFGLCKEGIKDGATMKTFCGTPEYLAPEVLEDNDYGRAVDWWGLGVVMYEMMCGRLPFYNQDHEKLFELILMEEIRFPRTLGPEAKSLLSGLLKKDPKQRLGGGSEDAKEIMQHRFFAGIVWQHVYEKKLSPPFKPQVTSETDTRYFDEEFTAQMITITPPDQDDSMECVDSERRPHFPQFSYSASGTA

phosphorylation by Akt (activated, purified Akt): strong phosphorylation
Sequence: RIRTQSFSLQPFR (The sequence was designed and synthesized) [F6]
E: changed phosphorylation in EGF stimulated condition (HEK293 cell lysates; EGF-stimulated compared to starved HEK293 cells): ++ (A change of more than +4 and −4 fold is indicated by “++” and “−−”, respectively.)
I: changed phosphorylation in insulin stimulated condition (HEK293 cell lysates; insulin-stimulated compared to starved HEK293 cells): + (A change of more +2 fold and −2 fold is indicated by “+” and “−”, respectively.)
